Experimental data as given in patent US20230114728A1 (Venatorx Pharmaceuticals, Inc., priority 2019, published 2023).
Values after ≈ are worked out from the molar mass of the structure shown. Where two headings read alike, the source gives them in different places.

Columns and labels:
P. aeruginosa PBP3 = biological target: T1, P. aeruginosa PBP3 (Pseudomonas aeruginosa, UniProt G3XD46); test: Bocillin-FL fluorescence polarization competition binding assay, P. aeruginosa PBP3; details: fluorescence polarization competition binding assay using Bocillin-FL
T1 construct: made in house
T1 sequence (G3XD46 whole entry): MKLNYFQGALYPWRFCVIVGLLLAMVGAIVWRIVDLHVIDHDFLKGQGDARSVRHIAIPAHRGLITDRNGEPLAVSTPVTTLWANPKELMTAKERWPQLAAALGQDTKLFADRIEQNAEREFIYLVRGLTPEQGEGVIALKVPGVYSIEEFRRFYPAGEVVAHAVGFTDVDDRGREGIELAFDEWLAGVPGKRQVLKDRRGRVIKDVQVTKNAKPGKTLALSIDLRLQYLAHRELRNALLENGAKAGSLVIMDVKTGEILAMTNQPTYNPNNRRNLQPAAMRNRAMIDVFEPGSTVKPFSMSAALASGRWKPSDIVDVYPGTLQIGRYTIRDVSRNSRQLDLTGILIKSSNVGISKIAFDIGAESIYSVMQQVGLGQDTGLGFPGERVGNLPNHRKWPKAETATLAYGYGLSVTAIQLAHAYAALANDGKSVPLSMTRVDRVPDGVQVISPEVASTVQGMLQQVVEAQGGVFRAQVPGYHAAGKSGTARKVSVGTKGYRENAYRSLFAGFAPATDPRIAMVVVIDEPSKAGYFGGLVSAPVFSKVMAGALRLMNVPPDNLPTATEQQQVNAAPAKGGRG
Text: Example I: Experimental Method for Penicillin-Binding Protein Binding Assays with Bocillin-FL Via Fluorescence Polarization
To determine the ability of boronic acid-based test PBP inhibitors to bind Penicillin Binding Proteins (PBPs), Bocillin-FL (fluorescently-labeled penicillin V; ThermoFisher Scientific) was used in a fluorescence polarization (FP) competition binding assay to assess inhibitor binding to PBP2, PBP3 or PBP4 from Escherichia coli (K12), PBP3 from Pseudomonas aeruginosa (PA01), PBP1a, PBP2 and PBP3 from Acinetobacter baumannii (ATCC 19606), and PBP2 from Neiserria gonorrheae (FA19). PBPs were cloned and purified as described previously (E. coli PBPs, King, D. T, et al., ACS Infectious Diseases 2015, 1, 175-184; P. aeruginosa PBP3, Han et. al., PNAS 2010, 107 (51), 22002-22007; A. baumannii PBPs, Penwell et. al., Antimicrob. Agents Chemother. 2015, 59 (3), 1680-1689; N. gonorrhoeae PBP2, Singh et. al., J Biol. Chem. 2019, 294 (38), 14020-14032). To establish assay conditions for competition binding, enzyme titration/saturation binding experiments were initially performed. Bocillin-FL was prepared at 0.2 μM in a buffer comprised of 50 mM Hepes (pH 8.0), 300 mM NaCl and 5% (v/v) glycerol for reactions with E. coli, P. aeruginosa and N. gonorrhoeae PBPs, and 25 mM Tris (pH 8.0), 200 mM NaCl and 10% (v/v) glycerol and 0.005% (v/v) Tween 20 for reactions with A. baumannii PBPs. Saturation binding was performed by mixing 40 μl of PBP solutions ranging in concentrations from 0-24 μM with 40 μl of the 0.2 μM Bocillin-FL solution, in individual wells of a black 384-well microplate. FP was measured immediately upon mixing (Excitation, 490 nm; Emission, 520 nm; g-factor, 0.96), using a Cytation3 (BioTek) microplate reader and measured continuously for up to 120 minutes. […] The competition binding assay (80 μl final volume) was validated using beta-lactams and PBPs at final concentrations of: 1.5 μM, E. coli PBP3; 0.75 μM, P. aeruginosa PBP3; 1 μM A. baumannii PBP1a; 2.5 μM A. baumannii PBP2; 0.2 μM A. baumannii PBP3; and […] N. gonorrhoeae PBP2. Bocillin-FL was at 0.1 μM (0.05 μM with A. baumannii PBP1a) and beta-lactam concentrations ranged from 0-1000 μM. […] Bocillin-FL was added and the FP immediately measured for up to 60 minutes (90 minutes for E. coli PBP2). […] The beta-lactam potency was reported as the concentration of beta-lactam required to reduce the amount of PBP bound-Bocillin-FL by 50% (EC50). […] Binding assays for boronic acid PBP inhibitors were performed in an identical fashion for the respective PBPs

[1] = system: P. aeruginosa (ΔmexAB-oprM); test: Broth microdilution MIC in CAMHB; assay type: cell-based; details: Pseudomonas aeruginosa, read-out: Minimum Inhibitory Concentration, P. aeruginosa ΔmexAB-OprM
Procedure: (§1) Example III: In Vitro Antibacterial Assays
(§2) To determine the ability of test compounds to inhibit the growth of bacterial strains, classic cell based broth microdilution minimum inhibitory concentration (MIC) assays were employed. MIC assays are performed according to CLSI methods except where otherwise noted (CLSI, 2018 and CLSI, 2019). The reference type strain E. coli ATCC 25922; the wild-type parent strain E. coli AG100; the hyper-permeable E. coli 901C and E. coli D22; and the E. coli AG100A strain lacking the acrAB efflux pump encoding genes were used to determine the ability of the PBP inhibitors to penetrate the outer membrane of gram-negative bacteria and inhibit bacterial growth. […] The P. aeruginosa ATCC 27853 and A. baumannii ATCC 19606, along with the hyper-permeable P. aeruginosa ATCC 35151 and an engineered efflux pump-compromised strain of P. aeruginosa (ΔmexAB-oprM) were used to determine the ability of PBP inhibitors to penetrate the outer membrane of P. aeruginosa and A. baumannii and assess antibacterial activity against these important gram-negative organisms.
(§3) Briefly, cryo-preserved bacterial cultures of challenge strains are streaked for isolation on appropriate agar medium, in this case cation-adjusted Mueller Hinton agar. Following incubation to allow growth of the colonies, plates are sealed with parafilm and stored refrigerated for up to two weeks. For preparation of assay inoculum and to ensure low variability, at least 5 colonies are picked from the agar plates with an inoculating loop and aseptically transferred to a culture tube containing 3 mL of cation-adjusted Mueller Hinton broth (CAMHB). The broth culture is grown for 3-5 hours at 37° C. with shaking at 200 rpm. Meanwhile, 2-fold serial dilutions of test compounds are conducted in a 96-well plate with a final volume of 75 μL per well at 2-fold the final desired concentration. After the dilution plates are set up the growing cultures are then diluted in a cuvette containing CAMHB and the optical density is measured at 600 nm. The inoculum is diluted such that 75 μL of this culture in CAMHB results in a starting bacterial concentration of 2-8×10^5 CFU/mL when added to the dilution plates. The plates are incubated for 16-20 hours for Enterobacteriaceae and Pseudomonas and 20-24 hours for Acinetobacter at 37° C. The MIC values are read visually as the lowest concentration well with no bacterial growth.

[2] = system: K. pneumoniae 848844 producing SHV-11 and KPC-2; test: Broth microdilution MIC in CAMHB; assay type: cell-based; details: Klebsiella pneumoniae, read-out: Minimum Inhibitory Concentration, K. pneumoniae 848844
Procedure: as §1, §2, §3

E. coli 901C = test: Broth microdilution MIC in CAMHB; assay type: cell-based; details: Escherichia coli, MHB, read-out: Minimum Inhibitory Concentration, E. coli 901C
Procedure: as §1, §2, §3

E. coli AG100 = test: Broth microdilution MIC in CAMHB; assay type: cell-based; details: Escherichia coli, MHB, read-out: Minimum Inhibitory Concentration, E. coli AG100
Procedure: as §1, §2, §3

E. coli D22 = test: Broth microdilution MIC in CAMHB; assay type: cell-based; details: Escherichia coli, MHB, read-out: Minimum Inhibitory Concentration, E. coli D22
Procedure: as §1, §2, §3

P. aeruginosa ATCC 35151 = test: Broth microdilution MIC in CAMHB; assay type: cell-based; details: Pseudomonas aeruginosa, ATCC35151; MHB; hyper-permeable strain; read-out: Minimum Inhibitory Concentration, P. aeruginosa ATCC 35151
Procedure: as §1, §2, §3

[3] = system: K. pneumoniae SI-117 producing VIM-1; test: Broth microdilution MIC in CAMHB; assay type: cell-based; details: Klebsiella pneumoniae, read-out: Minimum Inhibitory Concentration, K. pneumoniae SI-117
Procedure: as §1, §2, §3

[4] = system: K. pneumoniae UMM producing SHV-5 and KPC-2; test: Broth microdilution MIC in CAMHB; assay type: cell-based; details: Klebsiella pneumoniae, read-out: Minimum Inhibitory Concentration, K. pneumoniae UMM
Procedure: as §1, §2, §3

E. coli AG100A = test: Broth microdilution MIC in CAMHB; assay type: cell-based; details: Escherichia coli, read-out: Minimum Inhibitory Concentration, E. coli AG100A
Procedure: as §1, §2, §3

A. baumannii ATCC 19606 = test: Broth microdilution MIC in CAMHB; assay type: cell-based; details: Acinetobacter baumannii, ATCC19606; MHB; read-out: Minimum Inhibitory Concentration, A. baumannii ATCC 19606
Procedure: as §1, §2, §3

P. aeruginosa ATCC 27853 = test: Broth microdilution MIC in CAMHB; assay type: cell-based; details: Pseudomonas aeruginosa, ATCC27853; MHB; read-out: Minimum Inhibitory Concentration, P. aeruginosa ATCC 27853
Procedure: as §1, §2, §3

E. coli ATCC 25922 = test: Broth microdilution MIC in CAMHB; assay type: cell-based
Procedure: as §1, §2, §3

[5] = wild-type parent strain E. coli AG100
[6] = Escherichia coli, ATCC25922; MHB; E. coli ATCC 25922; read-out: Minimum Inhibitory Concentration, E. coli 25922

Compound	P. aeruginosa PBP3 Potency (P. aeruginosa PBP3)	MIC [1]	MIC [2]	MIC (E. coli 901C; hyper-permeable E. coli 901C)	MIC (E. coli AG100; [5])	MIC (E. coli D22; hyper-permeable E. coli D22)	MIC (P. aeruginosa ATCC 35151)	MIC [3]	MIC [4]	MIC (E. coli AG100A)	MIC (A. baumannii ATCC 19606)	MIC (P. aeruginosa ATCC 27853)	MIC (E. coli ATCC 25922; [6])	MIC (E. coli 901C; E. coli 901C (hyper-permeable))	MIC (E. coli AG100; E. coli AG100 (wild-type parent))	MIC (E. coli D22; E. coli D22 (hyper-permeable))	MIC (E. coli ATCC 25922; Escherichia coli, ATCC25922; E. coli ATCC 25922; MHB; read-out: Minimum Inhibitory Concentration, E. coli 25922)
NCCCN1CCN(C(=O)N[C@H](C(=O)N[C@H]2Cc3cccc(C(=O)O)c3OB2O)c2ccc(O)c(F)c2F)C(=O)C1=O (single isomer, unassigned) [Example 239]	C (C represents a potency between 10 and 30 μM)	8 to 16 µg/mL (≈ 13.6 to 27.2 µM)	> 128 µg/mL	> 128 µg/mL	> 128 µg/mL	> 128 µg/mL	2 to 4 µg/mL (≈ 3.39 to 6.79 µM)	8 to 16 µg/mL (≈ 13.6 to 27.2 µM)	2 to 4 µg/mL (≈ 3.39 to 6.79 µM)	> 128 µg/mL	> 128 µg/mL	> 128 µg/mL	> 128 µg/mL				
CCN1CCN(C(=O)N[C@H](C(=O)N[C@H]2Cc3cccc(C(=O)O)c3OB2O)c2ccc(C(=O)O)c(Cl)c2F)C(=O)C1=O (single isomer, unassigned) [Example 221]	C (C represents a potency between 10 and 30 μM)	32 to 64 µg/mL (≈ 52.9 to 106 µM)	> 128 µg/mL				2 to 4 µg/mL (≈ 3.31 to 6.61 µM)	8 to 16 µg/mL (≈ 13.2 to 26.5 µM)	0.5 to 1 µg/mL (≈ 0.827 to 1.65 µM)	> 128 µg/mL	> 128 µg/mL	> 128 µg/mL		> 128 µg/mL	> 128 µg/mL	> 128 µg/mL	32 to 64 µg/mL (≈ 52.9 to 106 µM)
NCCCN1CCN(C(=O)N[C@@H](C(=O)N[C@H]2Cc3cccc(C(=O)O)c3OB2O)c2ccc(O)c(F)c2F)C(=O)C1=O (single isomer, unassigned) [Example 238]	D (D represents a potency <10 μM)	2 to 4 µg/mL (≈ 3.39 to 6.79 µM)	8 to 16 µg/mL (≈ 13.6 to 27.2 µM)	32 to 64 µg/mL (≈ 54.3 to 109 µM)	32 to 64 µg/mL (≈ 54.3 to 109 µM)	8 to 16 µg/mL (≈ 13.6 to 27.2 µM)	< 0.25 µg/mL	0.5 to 1 µg/mL (≈ 0.848 to 1.7 µM)	< 0.25 µg/mL	32 to 64 µg/mL (≈ 54.3 to 109 µM)	> 128 µg/mL	32 to 64 µg/mL (≈ 54.3 to 109 µM)	2 to 4 µg/mL (≈ 3.39 to 6.79 µM)				
